In publication doi:10.1101/2025.11.13.688260v1 (biorxiv, 2025) one finds IC50 data, which are given here for three compounds.

Each structure is given as a SMILES string.

In the experiment the target is human CBL-B (Homo sapiens, UniProt Q13191). The experiment can be described thus: TR-FRET ubiquitin ligase assay. In kind it is biochemical.
Sequence of human CBL-B (Q13191 whole entry): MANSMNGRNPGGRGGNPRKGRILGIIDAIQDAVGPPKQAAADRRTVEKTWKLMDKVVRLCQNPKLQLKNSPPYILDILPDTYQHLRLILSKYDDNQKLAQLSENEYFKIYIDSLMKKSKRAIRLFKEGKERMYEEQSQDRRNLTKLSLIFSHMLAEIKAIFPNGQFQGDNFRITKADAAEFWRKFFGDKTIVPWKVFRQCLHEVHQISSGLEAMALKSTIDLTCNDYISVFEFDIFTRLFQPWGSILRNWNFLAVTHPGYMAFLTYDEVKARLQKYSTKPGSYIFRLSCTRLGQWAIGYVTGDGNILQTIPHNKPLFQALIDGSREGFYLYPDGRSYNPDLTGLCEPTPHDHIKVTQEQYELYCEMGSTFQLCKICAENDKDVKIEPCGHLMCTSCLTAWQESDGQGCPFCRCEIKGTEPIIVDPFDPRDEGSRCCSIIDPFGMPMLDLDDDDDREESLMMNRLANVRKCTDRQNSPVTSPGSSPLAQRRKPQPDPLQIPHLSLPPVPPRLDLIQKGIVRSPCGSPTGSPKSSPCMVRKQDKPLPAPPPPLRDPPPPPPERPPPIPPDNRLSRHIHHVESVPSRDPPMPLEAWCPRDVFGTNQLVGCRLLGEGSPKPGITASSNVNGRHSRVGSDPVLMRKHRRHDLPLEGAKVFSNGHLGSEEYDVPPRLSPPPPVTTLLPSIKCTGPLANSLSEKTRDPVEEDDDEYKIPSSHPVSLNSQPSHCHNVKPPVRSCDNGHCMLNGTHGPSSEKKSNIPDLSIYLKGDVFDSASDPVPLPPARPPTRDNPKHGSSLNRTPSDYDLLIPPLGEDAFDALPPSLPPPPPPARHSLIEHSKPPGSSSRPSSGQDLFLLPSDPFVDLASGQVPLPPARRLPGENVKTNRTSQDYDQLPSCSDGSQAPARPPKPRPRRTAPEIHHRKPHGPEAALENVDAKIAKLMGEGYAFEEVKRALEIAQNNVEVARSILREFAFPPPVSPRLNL
`Cn1cnnc1[C@]1(c2cccc(-c3cc4ccccc4[nH]c3=O)c2)C[C@H](C)C1` [compound 4, Cmpd. 4]: 1190 nM corresponded to half-maximal inhibition (IC50). The same measure for `C[C@H]1CCCN(Cc2cccc3cc(-c4cccc([C@]5(c6nncn6C)C[C@@H](C)C5)c4)c(=O)[nH]c23)C1` [compound 6, Cmpd. 6]: 16.8 nM. For `CC(NC1CCCC1)c1ccc(F)c2cc(-c3cccc([C@]4(c5nncn5C)C[C@@H](C)C4)c3)c(=O)[nH]c12` (stereo partly drawn) [compound 12, Cmpd. 12], the IC50 is 19.7 nM.
